Assay [1] deals with TEAD1(210-426) binding to YAP(50-100) (Homo sapiens, UniProt P28347). In words: TR-FRET Assay for TEAD1(210-426) Binding to YAP(50-100). The conditions noted are these: His-TEAD 10 nM, YAP-Biotin peptide 50 nM. The protocol: Compounds were performed 3 fold serial dilution, 12 data points, added to 384 well white plate. The final DMSO concentration is 1%, duplicate for each concentration. Then His-TEAD protein was added to a final concentration of 10 nM, and allowed to preincubate for 30 minutes at room temperature. Assay buffer was added as background control.
Sequence of TEAD1(210-426) binding to YAP(50-100) (P28347 209-426): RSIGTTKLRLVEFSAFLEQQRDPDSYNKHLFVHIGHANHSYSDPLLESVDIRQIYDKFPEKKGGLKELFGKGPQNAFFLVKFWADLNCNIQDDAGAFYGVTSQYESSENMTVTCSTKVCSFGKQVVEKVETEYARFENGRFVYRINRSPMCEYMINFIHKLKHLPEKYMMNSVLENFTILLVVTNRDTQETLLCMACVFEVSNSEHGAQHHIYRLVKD
YAP-Biotin peptide was added to a final concentration of 50 nM, mixed well, incubate 10 minutes at room temperature. The YAP(50-100) peptide sequence used here is named SEQ ID NO: 2
The Europium-labeled anti-6×His antibody and APC labeled streptavidin were diluted according to the instructions, this detection solution was mixed 1:1 with reaction solution, incubated 1 hour at room temperature.
TR-FRET measurements were made on an Envision (Perkin Elmer), using an excitation wavelength of 320 nm and emissions read at 620 nm and 665 nm. The ratio of the 665 nm to the 620 nm multiply 10000 provides a normalized TR-FRET signal that represents the extent of binding.
Half inhibition concentration IC50 value was calculated by XLfit software.

For a further assay, the system named is MSTO-211H cells. The assay is described as follows: Proliferation Assay (CellTiter-Glo Luminescent Cell Viability Assay). It is filed as cell-based. The conditions noted are these: Homo sapiens, 96 hours treatment. The protocol: Example 5: Proliferation Assay
The effect of compound on YAP driven cancer cells proliferation was assessed in MSTO-211H (ATCC, CRL-2081TM) or NCI-H2052 (ATCC, CRL-5915TM) cells using CellTiter-Glo Luminescent Cell Viability Assay (Promega, G7570).
Briefly, individual cell lines were seeded in 96-well cell culture plate at the density of 1,500 cells per well and cultured in RPMII1640 (Gibco-A10491-01)+10% FBS (Gibco-10099-141C)+1% Penicillin-Streptomycin (5,000 U/mL, Gibco-15070-063) overnight at 37° C. with 5% CO2 before adding the compounds.
Following incubation, serial dilutions of compounds dissolved in DMSO were added to each well (3-fold dilution with 9 concentration points). The final concentration of DMSO present in this assay is below 0.5% and make duplication for each compound treated well.
Following 96 hours treatment, compound mediated cell growth inhibition was measured using CellTiter-Go Luminescent Cell Viability Assay (Promega, G7570). […] CellTiter-Glo in each assay well, mix and incubate at room temperature for 10 min. Read signal using EnVision® Multilabel Plate Reader (Perkin Elmer).
For data analysis, cell proliferation inhibition was calculated using the following formula:
Inhibition %=(1−(Compound treated well CTG signal/DMSO well CTG signal))*100.
IC50 values were calculated using GraphPad Prism software using a four-parameter fit model.

Bounds are passed on as bounds.

For orientation: IC50 means the concentration that gives 50% inhibition. A high value points to a need for much substance.

With `Nc1ccnc(Cn2ccc(-c3nn(-c4ccc(C(F)(F)F)cc4)c4ccccc34)cc2=O)n1` [Compound 17, 1-((4-aminopyrimidin-2-yl)methyl)-4-(1-(4-(trifluoromethyl)phenyl)-1H-indazol-3-yl)pyridin-2(1H)-one], the IC50 is at most 100 nM in assay [1] and at most 1000 nM in the assay with MSTO-211H cells.
For `O=c1cc(-c2nn(-c3ccc(C(F)(F)F)cc3)c3ccccc23)ccn1Cc1cccnc1` [Compound 18, 1-(pyridin-3-ylmethyl)-4-(1-(4-(trifluoromethyl)phenyl)-1H-indazol-3-yl)pyridin-2(1H)-one] the same measures were at most 100 nM and at most 1000 nM.
For `O=c1cc(-c2nn(-c3ccc(C(F)(F)F)cc3)c3ccccc23)ccn1Cc1ccncc1` [Compound 19, 1-(pyridin-4-ylmethyl)-4-(1-(4-(trifluoromethyl)phenyl)-1H-indazol-3-yl)pyridin-2(1H)-one] the same measures were at most 100 nM and at most 1000 nM.
The like results for `C[C@@H](c1ccccn1)n1ccc(-c2nn(-c3ccc(C(F)(F)F)cc3)c3ncccc23)cc1=O` [Compound 20, (S)-1-(1-(pyridin-2-yl)ethyl)-4-(1-(4-(trifluoromethyl)phenyl)-1H-pyrazolo[3,4-b]pyridin-3-yl)pyridin-2(1H)-one] were, in that order, at most 100 nM and at most 1000 nM.
Take `C[C@@H](c1ccccn1)n1ccc(-c2nn(-c3ccc(C(F)(F)F)cc3)c3ccc(CO)cc23)cc1=O` [Compound 24]: the results for the IC50 (in assay [1]; in the assay on MSTO-211H cells) were at most 100 nM and at most 1000 nM, respectively.
On to `C[C@@H](c1ccccn1)n1ccc(-c2nn(-c3ccc(C(F)(F)F)cc3)c3cc(CO)ccc23)cc1=O` [Compound 28, (S)-4-(6-(hydroxymethyl)-1-(4-(trifluoromethyl)phenyl)-1H-indazol-3-yl)-1-(1-(pyridin-2-yl)ethyl)pyridin-2(1H)-one], for which the IC50 in assay [1] is at most 100 nM; in the assay with MSTO-211H cells, at most 1000 nM.
Turning to `C[C@@H](c1ccccn1)n1ccc(-c2nn(-c3ccc(C(F)(F)F)cc3)c3cc(C(=O)O)ccc23)cc1=O` [Compound 29, (S)-3-(2-oxo-1-(1-(pyridin-2-yl)ethyl)-1,2-dihydropyridin-4-yl)-1-(4-(trifluoromethyl)phenyl)-1H-indazole-6-carboxylic acid], the IC50 in assay [1] was over 1000 nM; in the assay on MSTO-211H cells, at most 1000 nM.
The like results for `C[C@@H](c1ccccn1)n1ccc(-c2nn(-c3ccc(C(F)(F)F)cc3)c3cc(C(N)=O)ccc23)cc1=O` [Compound 30, (S)-3-(2-oxo-1-(1-(pyridin-2-yl)ethyl)-1,2-dihydropyridin-4-yl)-1-(4-(trifluoromethyl)phenyl)-1H-indazole-6-carboxamide] were, in that order, over 1000 nM and at most 1000 nM.
The like results for `C[C@@H](c1ccccn1)n1ccc(-c2nn(-c3ccc(C(F)(F)F)cc3)c3cc(C#N)ccc23)cc1=O` [Compound 31, (S)-3-(2-oxo-1-(1-(pyridin-2-yl)ethyl)-1,2-dihydropyridin-4-yl)-1-(4-(trifluoromethyl)phenyl)-1H-indazole-6-carbonitrile] were, in that order, over 1000 nM and at most 1000 nM.
The like results for `C[C@@H](c1ccccn1)n1ccc(-c2nn(-c3ccc(C(F)(F)F)cc3)c3ccc(F)cc23)cc1=O` [Compound 33, (S)-4-(5-fluoro-1-(4-(trifluoromethyl)phenyl)-1H-indazol-3-yl)-1-(1-(pyridin-2-yl)ethyl)pyridin-2(1H)-one] were, in that order, at most 100 nM and at most 1000 nM.
As for `COc1ccc2c(c1)c(-c1ccn([C@@H](C)c3ccccn3)c(=O)c1)nn2-c1ccc(C(F)(F)F)cc1` [Compound 34, (S)-4-(5-methoxy-1-(4-(trifluoromethyl)phenyl)-1H-indazol-3-yl)-1-(1-(pyridin-2-yl)ethyl)pyridin-2(1H)-one], the IC50 is at most 100 nM in assay [1] and at most 1000 nM with MSTO-211H cells.
The like results for `Cn1nccc1Cn1ccc(-c2nn(-c3ccc(C(F)(F)F)cc3)c3ccccc23)cc1=O` [Compound 37, 1-((1-methyl-1 H-pyrazol-5-yl)methyl)-4-(1-(4-(trifluoromethyl)phenyl)-1H-indazol-3-yl)pyridin-2(1H)-one] were, in that order, at most 100 nM and at most 1000 nM.
The like results for `Cn1ccc(Cn2ccc(-c3nn(-c4ccc(C(F)(F)F)cc4)c4ccccc34)cc2=O)n1` [Compound 38, 1-((1-methyl-1H-pyrazol-3-yl)methyl)-4-(1-(4-(trifluoromethyl)phenyl)-1H-indazol-3-yl)pyridin-2(1H)-one] were, in that order, at most 100 nM and at most 1000 nM.
The like results for `Cn1cncc1Cn1ccc(-c2nn(-c3ccc(C(F)(F)F)cc3)c3ccccc23)cc1=O` [Compound 39, 1-((1-methyl-1H-imidazol-5-yl)methyl)-4-(1-(4-(trifluoromethyl)phenyl)-1H-indazol-3-yl)pyridin-2(1H)-one] were, in that order, over 1000 nM and at most 1000 nM.
For the molecule `C[C@@H](c1ccccn1)n1ccc(-c2nn(-c3ccc(C(F)(F)F)nc3)c3cccnc23)cc1=O` [Compound 40, (S)-1-(1-(pyridin-2-yl)ethyl)-4-(1-(6-(trifluoromethyl)pyridin-3-yl)-1H-pyrazolo[4,3-b]pyridin-3-yl)pyridin-2(1H)-one], the IC50 in assay [1] was over 1000 nM; in the assay on MSTO-211H cells, at most 1000 nM.
With `Cn1ccc(Cn2ccc(-n3nc(-c4ccc(C(F)(F)F)cc4)c4ncccc43)cc2=O)n1` [Compound 41, 1-((1-methyl-1H-pyrazol-3-yl)methyl)-4-(3-(4-(trifluoromethyl)phenyl)-1H-pyrazolo[4,3-b]pyridin-1-yl)pyridin-2(1H)-one], the IC50 in assay [1] is at most 100 nM; with MSTO-211H cells it was at most 1000 nM.
The like results for `CNc1nccc(Cn2ccc(-n3nc(-c4ccc(C(F)(F)F)cc4)c4ncccc43)cc2=O)n1` [Compound 42, 1-((2-(methylamino)pyrimidin-4-yl)methyl)-4-(3-(4-(trifluoromethyl)phenyl)-1H-pyrazolo[4,3-b]pyridin-1-yl)pyridin-2(1H)-one] were, in that order, at most 100 nM and at most 1000 nM.
The like results for `Cn1ccnc1Cn1ccc(-n2nc(-c3ccc(C(F)(F)F)cc3)c3ncccc32)cc1=O` [Compound 43, 1-((1-methyl-1H-imidazol-2-yl)methyl)-4-(3-(4-(trifluoromethyl)phenyl)-1H-pyrazolo[4,3-b]pyridin-1-yl)pyridin-2(1H)-one] were, in that order, 100 to 1000 nM and at most 1000 nM.
For `O=c1cc(-c2nn(-c3ccc(C(F)(F)F)cc3)c3ncccc23)ccn1Cc1ccnc(NC2CC2)n1` [Compound 44, 1-((2-(cyclopropylamino)pyrimidin-4-yl)methyl)-4-(1-(4-(trifluoromethyl)phenyl)-1H-pyrazolo[3,4-b]pyridin-3-yl)pyridin-2(1H)-one] the same measures were at most 100 nM and at most 1000 nM.
On to `O=c1cc(-n2nc(-c3ccc(C(F)(F)F)cc3)c3ncccc32)ccn1Cc1ccn(CCO)n1` [Compound 45], for which the values for the IC50 (in assay [1]; in the assay on MSTO-211H cells) were at most 100 nM and at most 1000 nM, respectively.
The like results for `O=c1cc(-n2nc(-c3ccc(C(F)(F)F)cc3)c3ncccc32)ccn1Cc1ccnc(NCCO)n1` [Compound 46, 1-((2-((2-hydroxyethyl)amino)pyrimidin-4-yl)methyl)-4-(3-(4-(trifluoromethyl)phenyl)-1H-pyrazolo[4,3-b]pyridin-1-yl)pyridin-2(1H)-one] were, in that order, at most 100 nM and at most 1000 nM.

(Values after patent US20250154127A1, “BICYCLIC HETEROARYL COMPOUNDS AND USES THEREOF” (ETERN BIOPHARMA (SHANGHAI) CO., LTD., priority 2022, published 2025).)
